From US12653822B2, “Aripiprazole formulations having increased injection speeds” (ALKERMES PHARMA IRELAND LIMITED, priority 2014, dated 2026)

Legend:
[1] = Phase 3 extension study: rapid IM injection of Compound 1, pain and injection site reactions; type: in vivo, human; settings: fast injection
Protocol: Injection site reactions and pain upon IM injection of Compound 1 are a potential safety concern. A Phase 3, multicenter, extension study was conducted in 81 sites to assess the effect of rapid IM injections of Compound 1 on human patients diagnosed with stable schizophrenia. Briefly, 332 subjects enrolled in the study were assigned PFS. Compound 1 is formulated as a pre-filled syringe (PFS) of an extended release aqueous suspension of a therapeutically effective amount of Compound 1. An injection volume of 3.4 mL or 1.6 mL of the aqueous suspension was administered according to protocol I at a rate of less than 10 seconds by inserting the 20 gauge needle in the gluteal muscle. ISRs upon IM injection of Compound 1 were assessed at each visit. Over 5000 injections of Compound 1 have been administered intramuscularly with an ISR rate of less than 1%.
• 1. TAP the pre-filled syringe at least 10 times to dislodge any material that may have settled. • 2. […] Replace with new needle (Steps 3 & 4) and administer into an adjacent site in the same gluteal muscle (Steps 5 & 6).] • If you are unable to complete the injection, replace with new needle (Steps 3 & 4) and readminister into an adjacent site in the same gluteal muscle (Steps 5 & 6). • 7. […]

[2] = cited from earlier work

Structure (SMILES)	injection site reactions and/or elevated pain levels reported, % of patients [1] [%]	Tissue irritation ([2]; following intramuscular (IM) injection and subcutaneous (SC) injection)	Pharmacokinetic profile ([2]; injections)
CCCCCCCCCCCC(=O)OCN1C(=O)CCc2ccc(OCCCCN3CCN(c4cccc(Cl)c4Cl)CC3)cc21 [Compound 1, (7-(4-(4-(2,3-dichlorophenyl)piperazin-1-yl)butoxy)-2-oxo-3,4-dihydroquinolin-1(2H)-yl)methyl dodecanoate]	< 1	–	–
O=C1CCc2ccc(OCCCCN3CCN(c4cccc(Cl)c4Cl)CC3)cc2N1 [aripiprazole free base, 7-{4-[4-(2,3-dichlorophenyl)-1-piperazinyl]butoxy}-3,4-dihydro-2(1H)-quinolinone]	–	moderate to severe	prolonged
